In BigSolDB 2.1:

OC[C@@H](O)[C@@H](O)[C@H](O)[C@@H](O)CO
solubility (mole fraction)
Settings	in THF	in acetone	in acetonitrile	in ethanol	in ethyl acetate	in methanol	in n-butanol	in n-propanol
278.15 K	0.000363	0.000225	0.000109	0.000598	0.000239	0.00205	0.000449	0.000553
283.15 K	0.000406	0.000255	0.000129	0.000753	0.000259	0.00275	0.000533	0.000677
288.15 K	0.000446	0.000287	0.000153	0.000944	0.000289	0.00351	0.000627	0.000838
293.15 K	0.000489	0.000328	0.000178	0.00117	0.000317	0.00461	0.000748	0.00102
298.15 K	0.000544	0.000382	0.000208	0.00146	0.000354	0.00585	0.000895	0.00124
303.15 K	0.000597	0.000436	0.000249	0.00181	0.000392	0.00739	0.00106	0.00152
